Each block holds one molecule with its values, some of them ahead of it. Peptide text beside a SMILES is read from it.
Key:
[1] = Half life in Wistar rat at 10 mg/kg, po or 1 mg/kg, iv; type: ADME, organism-based; details: in vivo
[2] = Oral bioavailability in Wistar rat at 10 mg/kg; type: ADME, organism-based; details: in vivo
[3] = target: T1, C5a anaphylatoxin chemotactic receptor 1 (Homo sapiens, UniProt P21730); assay: Antagonist activity at recombinant human C5aR1 expressed in Sf9 insect cell membranes co-expressing G-alphai2,G-beta1 and G-gamma2 assessed as inhibition of recombinant human C5a-induced [35S]GTPgammaS binding after 60 mins by liquid scintillation spectrometry; type: functional
T1 sequence (P21730 whole entry): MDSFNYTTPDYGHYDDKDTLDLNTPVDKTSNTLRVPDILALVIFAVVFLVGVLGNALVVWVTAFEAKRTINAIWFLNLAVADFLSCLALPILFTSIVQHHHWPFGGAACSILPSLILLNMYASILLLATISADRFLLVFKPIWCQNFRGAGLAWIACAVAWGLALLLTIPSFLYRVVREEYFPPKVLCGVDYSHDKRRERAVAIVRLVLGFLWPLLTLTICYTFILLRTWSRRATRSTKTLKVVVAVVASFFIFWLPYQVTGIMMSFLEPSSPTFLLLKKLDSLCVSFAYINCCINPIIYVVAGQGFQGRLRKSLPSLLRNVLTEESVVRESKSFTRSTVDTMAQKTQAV

[4] = target: T2, Mannan-binding lectin serine protease 2 (Homo sapiens, UniProt O00187); assay: Inhibition of MASP2 (unknown origin)-induced lectin pathway by ELISA
T2 sequence (O00187 16-444 limits assumed): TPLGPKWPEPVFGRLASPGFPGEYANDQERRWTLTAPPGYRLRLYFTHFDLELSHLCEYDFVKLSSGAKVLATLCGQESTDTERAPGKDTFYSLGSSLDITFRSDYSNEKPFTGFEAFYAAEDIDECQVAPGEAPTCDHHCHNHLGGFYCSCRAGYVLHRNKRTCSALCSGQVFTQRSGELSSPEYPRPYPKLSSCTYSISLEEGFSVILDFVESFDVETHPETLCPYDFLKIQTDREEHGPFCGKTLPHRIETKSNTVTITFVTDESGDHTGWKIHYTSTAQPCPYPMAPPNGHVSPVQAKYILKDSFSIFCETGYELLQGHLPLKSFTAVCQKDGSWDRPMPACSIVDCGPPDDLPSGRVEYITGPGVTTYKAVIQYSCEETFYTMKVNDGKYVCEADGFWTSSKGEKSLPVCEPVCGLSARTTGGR
T2 sequence (O00187 445-686 limits assumed): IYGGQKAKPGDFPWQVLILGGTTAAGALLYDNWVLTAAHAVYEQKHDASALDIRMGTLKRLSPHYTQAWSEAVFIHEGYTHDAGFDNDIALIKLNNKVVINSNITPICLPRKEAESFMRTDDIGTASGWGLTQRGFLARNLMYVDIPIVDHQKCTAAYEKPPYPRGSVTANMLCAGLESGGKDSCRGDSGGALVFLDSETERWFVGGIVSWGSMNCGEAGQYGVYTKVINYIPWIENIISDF

[5] = target: T2, Mannan-binding lectin serine protease 2; assay: Inhibition of recombinant […] fragment of MASP-2 (unknown origin)
[6] = target: T3, C3a anaphylatoxin chemotactic receptor (Homo sapiens, UniProt Q16581); assay: Antagonist activity at C3aR in HMDM assessed as inhibition of agonist-induced Ca2+ release; type: functional
T3 sequence (Q16581 whole entry): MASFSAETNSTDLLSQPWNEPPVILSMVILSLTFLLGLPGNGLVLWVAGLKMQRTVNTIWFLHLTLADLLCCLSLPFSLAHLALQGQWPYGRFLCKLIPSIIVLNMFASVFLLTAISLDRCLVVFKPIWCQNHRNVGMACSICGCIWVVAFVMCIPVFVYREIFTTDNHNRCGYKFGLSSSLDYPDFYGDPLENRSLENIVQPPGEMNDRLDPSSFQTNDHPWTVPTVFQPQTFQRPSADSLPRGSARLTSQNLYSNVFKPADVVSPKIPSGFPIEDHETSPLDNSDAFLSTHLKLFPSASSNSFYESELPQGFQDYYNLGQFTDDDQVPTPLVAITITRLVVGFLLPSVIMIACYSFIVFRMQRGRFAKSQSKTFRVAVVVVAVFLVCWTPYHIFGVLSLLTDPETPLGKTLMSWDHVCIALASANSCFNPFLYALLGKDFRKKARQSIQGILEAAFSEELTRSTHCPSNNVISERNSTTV

[7] = Inhibition of factor D in […]-activated cat serum assessed as decrease in human erythrocyte lysis; details: Felis catus
[8] = Inhibition of factor D in […]-activated dog serum assessed as decrease in human erythrocyte lysis; details: Canis lupus familiaris
[9] = target: Complement factor B (Homo sapiens, UniProt P00751); assay: Displacement of Cy5 from recombinant human biotin-labeled factor B expressed in drosophila cells after 2 hrs by TR-FRET assay; type: cell-based
Sequence of Complement factor B (P00751 whole entry): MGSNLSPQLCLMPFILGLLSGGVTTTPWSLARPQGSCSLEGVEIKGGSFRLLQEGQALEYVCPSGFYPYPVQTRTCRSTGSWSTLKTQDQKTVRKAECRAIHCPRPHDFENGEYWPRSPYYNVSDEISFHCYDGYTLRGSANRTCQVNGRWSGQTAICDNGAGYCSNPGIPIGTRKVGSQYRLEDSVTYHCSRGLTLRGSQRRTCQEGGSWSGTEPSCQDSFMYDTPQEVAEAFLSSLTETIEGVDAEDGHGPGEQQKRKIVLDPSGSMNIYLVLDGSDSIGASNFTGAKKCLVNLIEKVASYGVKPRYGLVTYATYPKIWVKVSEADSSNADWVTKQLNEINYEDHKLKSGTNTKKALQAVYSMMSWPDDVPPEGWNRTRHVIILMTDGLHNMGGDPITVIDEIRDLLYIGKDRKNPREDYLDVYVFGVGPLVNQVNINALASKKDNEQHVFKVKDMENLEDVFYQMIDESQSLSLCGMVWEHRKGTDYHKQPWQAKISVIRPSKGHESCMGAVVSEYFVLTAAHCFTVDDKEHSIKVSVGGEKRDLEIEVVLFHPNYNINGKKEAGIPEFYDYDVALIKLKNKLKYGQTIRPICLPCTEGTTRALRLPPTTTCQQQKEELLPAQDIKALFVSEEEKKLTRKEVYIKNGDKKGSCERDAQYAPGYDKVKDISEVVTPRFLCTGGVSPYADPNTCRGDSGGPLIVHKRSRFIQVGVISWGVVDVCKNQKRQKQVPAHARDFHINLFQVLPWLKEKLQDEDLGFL

[10] = target: T3, C3a anaphylatoxin chemotactic receptor; assay: Antagonist activity at human C3aR expressed in RBL-2H3 cells assessed as inhibition of C3a-induced intracellular calcium mobilization; type: functional, cell-based
[11] = target: T3, C3a anaphylatoxin chemotactic receptor; assay: Displacement of 125I-C3a from human C3aR expressed in RBL-2H3 cells; type: cell-based
[12] = target: Complement C3 (Homo sapiens, UniProt P01024); assay: Inhibition of C3 in human serum by ELISA
Sequence of Complement C3 (P01024 23-667 limits assumed): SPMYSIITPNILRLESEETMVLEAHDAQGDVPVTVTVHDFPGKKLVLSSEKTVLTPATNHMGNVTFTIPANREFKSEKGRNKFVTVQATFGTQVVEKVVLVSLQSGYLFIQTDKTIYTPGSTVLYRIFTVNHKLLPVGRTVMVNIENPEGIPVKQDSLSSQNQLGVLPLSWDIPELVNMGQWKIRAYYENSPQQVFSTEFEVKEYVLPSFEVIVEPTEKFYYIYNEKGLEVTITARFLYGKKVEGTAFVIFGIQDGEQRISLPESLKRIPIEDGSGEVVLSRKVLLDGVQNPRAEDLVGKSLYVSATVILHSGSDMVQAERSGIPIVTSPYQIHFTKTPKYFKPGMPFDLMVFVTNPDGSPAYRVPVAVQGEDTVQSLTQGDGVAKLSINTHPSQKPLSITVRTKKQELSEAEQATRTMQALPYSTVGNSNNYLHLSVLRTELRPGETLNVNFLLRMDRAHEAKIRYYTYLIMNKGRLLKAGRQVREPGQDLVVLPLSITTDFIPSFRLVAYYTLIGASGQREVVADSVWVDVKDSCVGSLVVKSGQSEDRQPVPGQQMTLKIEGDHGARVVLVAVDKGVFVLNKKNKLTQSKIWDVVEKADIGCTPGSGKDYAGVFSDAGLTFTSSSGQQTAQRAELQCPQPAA
Sequence of Complement C3 (P01024 672-1663 limits assumed): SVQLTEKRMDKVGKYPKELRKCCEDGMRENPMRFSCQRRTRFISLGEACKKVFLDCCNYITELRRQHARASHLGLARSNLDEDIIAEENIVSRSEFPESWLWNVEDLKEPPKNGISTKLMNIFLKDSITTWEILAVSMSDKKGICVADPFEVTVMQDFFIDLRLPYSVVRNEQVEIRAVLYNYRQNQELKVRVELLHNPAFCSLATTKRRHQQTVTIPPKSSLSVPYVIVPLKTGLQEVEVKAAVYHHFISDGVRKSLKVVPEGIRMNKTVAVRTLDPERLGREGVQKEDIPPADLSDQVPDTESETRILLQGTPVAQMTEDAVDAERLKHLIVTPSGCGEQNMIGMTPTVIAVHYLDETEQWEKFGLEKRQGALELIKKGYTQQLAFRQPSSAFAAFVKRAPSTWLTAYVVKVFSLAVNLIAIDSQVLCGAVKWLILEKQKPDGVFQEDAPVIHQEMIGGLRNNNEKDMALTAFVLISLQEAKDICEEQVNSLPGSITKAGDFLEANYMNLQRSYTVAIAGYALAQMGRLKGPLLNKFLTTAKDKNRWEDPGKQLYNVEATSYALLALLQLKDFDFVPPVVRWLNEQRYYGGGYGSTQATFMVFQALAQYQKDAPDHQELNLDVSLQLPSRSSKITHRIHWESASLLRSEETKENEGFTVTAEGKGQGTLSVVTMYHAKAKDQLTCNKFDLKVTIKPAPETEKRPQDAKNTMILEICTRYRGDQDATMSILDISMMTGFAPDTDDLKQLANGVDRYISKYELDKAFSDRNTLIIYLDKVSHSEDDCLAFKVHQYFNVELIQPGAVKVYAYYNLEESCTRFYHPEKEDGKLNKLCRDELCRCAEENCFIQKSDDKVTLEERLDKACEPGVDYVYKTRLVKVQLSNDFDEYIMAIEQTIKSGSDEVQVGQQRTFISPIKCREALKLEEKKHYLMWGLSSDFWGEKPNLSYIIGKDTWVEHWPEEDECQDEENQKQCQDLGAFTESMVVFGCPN

[13] = target: T4, Integrin alpha-M/beta-2 (Homo sapiens, UniProt P05107+P11215); assay: Antagonist activity at CR3 in carboxyfluorescein diacetate succiminidyl ester-labeled human PMN assessed as inhibition of TNF/PMA-stimulated adhesion of PMN to fibrinogen preincubated for 10 mins followed by TNF/PMA addition by fluorescence assay; type: protein-complex assay
T4 sequence (P05107 23-769 limits assumed, other chains not shown): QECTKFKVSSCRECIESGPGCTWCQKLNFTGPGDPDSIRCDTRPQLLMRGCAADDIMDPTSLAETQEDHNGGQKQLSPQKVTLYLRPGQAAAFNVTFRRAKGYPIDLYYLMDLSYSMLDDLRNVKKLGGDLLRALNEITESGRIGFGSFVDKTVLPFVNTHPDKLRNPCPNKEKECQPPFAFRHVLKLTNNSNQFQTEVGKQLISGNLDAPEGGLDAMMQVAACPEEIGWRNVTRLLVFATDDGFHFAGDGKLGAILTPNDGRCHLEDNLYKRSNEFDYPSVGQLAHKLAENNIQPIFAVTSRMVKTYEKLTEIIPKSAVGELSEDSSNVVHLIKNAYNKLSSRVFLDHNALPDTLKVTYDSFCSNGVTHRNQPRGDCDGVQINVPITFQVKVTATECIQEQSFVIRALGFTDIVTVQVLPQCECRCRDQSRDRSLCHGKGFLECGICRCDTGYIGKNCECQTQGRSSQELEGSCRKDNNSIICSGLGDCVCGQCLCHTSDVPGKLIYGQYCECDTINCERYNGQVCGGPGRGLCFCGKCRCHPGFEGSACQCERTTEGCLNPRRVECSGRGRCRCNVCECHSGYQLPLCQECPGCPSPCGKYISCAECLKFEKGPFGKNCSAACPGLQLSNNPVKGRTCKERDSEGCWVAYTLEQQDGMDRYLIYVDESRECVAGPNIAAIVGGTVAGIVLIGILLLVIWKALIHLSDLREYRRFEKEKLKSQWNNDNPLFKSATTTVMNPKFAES

[14] = target: T4, Integrin alpha-M/beta-2; assay: Inhibition of C3bi-AP binding to CR3 derived from human PMN; type: protein-complex assay

half-life [1]: 20 h
bioavailability [2]: ≤ 2%
SMILES: CC(=O)N[C@@H](Cc1ccccc1)C(=O)N[C@H]1CCCNC(=O)[C@H](CCCNC(=N)N)NC(=O)[C@H](Cc2c[nH]c3ccccc23)NC(=O)[C@@H](CC2CCCCC2)NC(=O)[C@@H]2CCCN2C1=O

IC50 [7]: 100 nM
IC50 [8]: 100 nM
SMILES: CC(=O)Oc1ccc(-c2ccc(OC(C)=O)c(C(=O)O)c2)cc1C(=O)O

IC50 [12]: 62 nM
SMILES: CC[C@H](C)[C@H](NC(C)=O)C(=O)N[C@H]1CSSC[C@@H](C(=O)N(C)[C@H](C(N)=O)[C@@H](C)CC)NC(=O)[C@H](CCCNC(=N)N)NC(=O)[C@H](Cc2c[nH]cn2)NC(=O)[C@H](C)NC(=O)CN(C)C(=O)[C@H](Cc2c[nH]c3ccccc23)NC(=O)[C@H](CC(=O)O)NC(=O)[C@H](CCC(N)=O)NC(=O)[C@H](Cc2cn(C)c3ccccc23)NC(=O)[C@H](C(C)C)NC1=O

half-life [1]: 1 to 3 h
bioavailability [2]: 70%
SMILES: COc1ccc2c(c1)C(C(=O)N(Cc1ccc(N(C)C)cc1)c1ccc(C(C)C)cc1)CCC2 (stereo unspecified)

IC50 [13]: 2500 to 10000 nM
IC50 [14]: 330 nM
SMILES: CCN1/C(=C/C=C/c2sc3ccccc3[n+]2CC)Sc2ccccc21

Continued, molecule first:

SMILES: C[C@@H](C(=O)N(Cc1ccccc1F)C1Cc2ccccc2C1)N1CCc2ccccc2[C@@H]1c1cccc2ccccc12
Ki [3]: 15.2 nM

SMILES: CC(C)C[C@H](NC(=O)[C@H](CCCCN)NC(=O)[C@@H](NC(=O)[C@H](CS)NC(=O)[C@@H](NC(=O)[C@H](C)NC(=O)[C@H](CO)NC(=O)[C@H](CCCCN)NC(=O)CNC(=O)[C@H](CC(=O)O)NC(=O)[C@H](CO)NC(=O)CNC(=O)[C@H](CS)NC(=O)[C@H](CCCNC(=N)N)NC(=O)[C@H](CS)NC(=O)[C@@H](NC(=O)[C@H](CC(N)=O)NC(=O)[C@H](CS)NC(=O)[C@H](CCCCN)NC(=O)[C@H](CC(=O)O)NC(=O)[C@H](CCCCN)NC(=O)[C@H](Cc1ccccc1)NC(=O)[C@@H](NC(=O)[C@@H](NC(=O)CNC(=O)[C@@H]1CCCN1C(=O)[C@H](CCC(=O)O)NC(=O)[C@H](CS)NC(=O)[C@@H](NC(=O)[C@@H](NC(=O)[C@@H](N)CCC(=O)O)C(C)C)[C@@H](C)O)[C@@H](C)O)[C@@H](C)O)[C@@H](C)O)C(C)C)[C@@H](C)O)C(=O)N[C@@H](Cc1c[nH]c2ccccc12)C(=O)N[C@@H](CS)C(=O)N[C@@H](CC(N)=O)C(=O)N[C@@H](CCC(N)=O)C(=O)O (H-EVTCEPGTTFKDKCNTCRCGSDGKSAVCTKLWCNQ-OH)
IC50 [4]: 66 nM
Ki [5]: 6 nM

SMILES: N=C(N)NCCC[C@@H](C(=O)O)N1Cc2nc(C(c3ccccc3)c3ccccc3)sc2C1=O
IC50 [6]: 320 nM

SMILES: COc1cc(C)c2[nH]ccc2c1C(C)(C)c1nc2cc(C#N)cnc2[nH]1
IC50 [9]: 30 nM

SMILES: N=C(N)NCCC[C@H](NC(=O)COCC(c1ccccc1)c1ccccc1)C(=O)O
IC50 [10]: 28 nM
IC50 [11]: 200 nM

Reference: ChEMBL document CHEMBL4229327, “Chemical Approaches to Modulating Complement-Mediated Diseases” (J Med Chem, 2018)
